Assay results reported in doi:10.1101/2024.08.12.607575v1 (bioRxiv, 2024).
Values belong to the molecule of their own block, whether it stands above or below them. Bridge positions count the residues as written; N and C are the ends. Peptide text beside a SMILES is read from it.

Assays:
[1] = system: CD206; settings: recognition moiety for CD206; cited from earlier work
[2] = system: orthotopic 4T1.2 tumors; test: MACTIDE-V monotherapy in orthotopic 4T1.2; type: in vivo, mouse; settings: for CD8+ T cell density (mIHC): n=6 mice/group
[3] = system: mouse bone marrow-derived macrophages (BMDMs); test: Phagocytosis assay; type: cell-based; settings: 10 µM 4 h, washed, 48 h follow-up, relative to MACTIDE and untreated
[4] = biological target: T1, human recombinant CD206 (Homo sapiens, UniProt P22897); test: Quartz Crystal Microbalance; type: binding; settings: QCM, PAH/CD206 multilayer
T1 sequence (P22897 19-1456): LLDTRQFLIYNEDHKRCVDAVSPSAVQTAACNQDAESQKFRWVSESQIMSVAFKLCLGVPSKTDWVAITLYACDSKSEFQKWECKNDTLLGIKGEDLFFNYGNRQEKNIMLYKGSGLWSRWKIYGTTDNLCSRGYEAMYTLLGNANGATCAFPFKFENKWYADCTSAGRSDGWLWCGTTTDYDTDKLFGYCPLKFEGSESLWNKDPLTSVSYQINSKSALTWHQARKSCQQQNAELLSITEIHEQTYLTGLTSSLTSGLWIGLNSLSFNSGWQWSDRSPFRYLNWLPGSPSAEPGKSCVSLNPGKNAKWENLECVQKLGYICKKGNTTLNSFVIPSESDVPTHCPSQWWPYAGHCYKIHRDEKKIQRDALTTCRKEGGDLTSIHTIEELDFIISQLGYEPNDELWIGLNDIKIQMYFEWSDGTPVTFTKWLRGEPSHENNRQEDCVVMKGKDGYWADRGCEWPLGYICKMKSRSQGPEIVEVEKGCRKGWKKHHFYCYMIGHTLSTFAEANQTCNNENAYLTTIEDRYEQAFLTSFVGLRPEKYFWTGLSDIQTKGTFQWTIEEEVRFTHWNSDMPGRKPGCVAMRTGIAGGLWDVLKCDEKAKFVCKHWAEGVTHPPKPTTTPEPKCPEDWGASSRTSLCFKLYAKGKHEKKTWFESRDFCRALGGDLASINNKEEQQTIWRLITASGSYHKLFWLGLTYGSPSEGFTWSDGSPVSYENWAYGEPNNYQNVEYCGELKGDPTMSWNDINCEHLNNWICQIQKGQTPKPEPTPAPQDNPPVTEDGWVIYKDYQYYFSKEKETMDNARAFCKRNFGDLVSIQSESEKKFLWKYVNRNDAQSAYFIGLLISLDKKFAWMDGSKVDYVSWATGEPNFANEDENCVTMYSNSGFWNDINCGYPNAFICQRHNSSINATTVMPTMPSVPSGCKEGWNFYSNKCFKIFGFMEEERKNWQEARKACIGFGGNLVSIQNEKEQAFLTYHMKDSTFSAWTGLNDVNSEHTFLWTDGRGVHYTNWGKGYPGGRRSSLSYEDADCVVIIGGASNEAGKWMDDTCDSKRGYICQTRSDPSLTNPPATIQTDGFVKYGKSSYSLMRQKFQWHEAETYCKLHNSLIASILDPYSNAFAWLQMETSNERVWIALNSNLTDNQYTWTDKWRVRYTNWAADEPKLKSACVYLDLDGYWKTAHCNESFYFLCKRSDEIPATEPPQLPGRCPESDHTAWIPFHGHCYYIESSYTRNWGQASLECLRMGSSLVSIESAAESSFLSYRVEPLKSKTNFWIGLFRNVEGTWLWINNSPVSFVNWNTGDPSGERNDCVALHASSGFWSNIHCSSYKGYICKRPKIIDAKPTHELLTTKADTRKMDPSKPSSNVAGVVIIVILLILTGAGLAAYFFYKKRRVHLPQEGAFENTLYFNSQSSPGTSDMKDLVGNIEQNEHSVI

[5] = system: mouse bone marrow-derived macrophages (BMDMs); test: Flow cytometry of BMDM markers; type: cell-based; settings: Balb/C BMDMs, 48 h after treatment, not statistically significant
[6] = system: orthotopic 4T1 tumors; test: In vivo photodynamic therapy / treatment in orthotopic 4T1; design: species or system mouse; settings: 30 nmoles i.p., no irradiation, compared with irradiated MACTIDE-V
[7] = tumor cell suspensions, n=4 per group

Molecule: OC[C@H]1OC(O)[C@@H](O)[C@@H](O)[C@@H]1O (stereo partly drawn) [mannose]
affinity of mannose [1]: low millimolar range

Molecule: Vert-Ahx-AKPCGS-OH [CtrlPep-V, reference compound]
CD8+ T cell density (mIHC) [2]: trend of increased CD8^+ T cell density

dissociation upon washing with PBS [4]: incompletely and slowly dissociated
Molecule: CC[C@H](C)[C@@H]1NC(=O)[C@@H]2CCCN2C(=O)[C@@H]2CCCN2C(=O)[C@H]([C@@H](C)CC)NC(=O)[C@H](CO)NC(=O)[C@H](CCCCN)NC(=O)[C@H]([C@@H](C)O)NC(=O)[C@@H](NC(=O)CN)CSSC[C@@H](C(=O)N[C@@H](CO)C(=O)N2CCC[C@H]2C(=O)NCC(=O)N[C@@H](C)C(=O)N[C@@H](CCCCN)C(=O)O)NC1=O [MACTIDE] (H-GCTKSIPPICSPGAK-OH; disulfide 2-10)
phagocytosis of fluorescent E. coli particles [3]: no effects

Molecule: Vert-Ahx-G(CTKSIPPIC)SPGAK-OH (disulfide) [MACTIDE-V]
viability and differentiation of BMDMs [5]: slightly affected | body weight, non-irradiated (-) [6]: less effect on body weight | CD8+ T cell density (mIHC) [2]: trend of increased CD8^+ T cell density | percentage of CD206+ cells in tumor (flow cytometry) [2, 7]: did not reduce | polymorphonuclear (PMN) or TAM/monocyte cell populations (flow cytometry) [2, 7]: no effects
